Measured values as given in the NIST ThermoML archive (doi:10.1016/j.jct.2009.04.009).

Conditions: Liquid

CC(C)CCO [3-methylbutan-1-ol]
Recirculating Still
Conditions | vapor or sublimation pressure [kPa]
357.5 K | 15
367.2 K | 23.5
374.4 K | 32
380.1 K | 40.5
384.8 K | 49
389.1 K | 57.5
392.8 K | 66
402 K | 91.5
407 K | 108.5
409.3 K | 117
411.4 K | 125.5
413.5 K | 134
415.4 K | 142.5
417.3 K | 151
419.2 K | 159.5
420.9 K | 168
422.4 K | 176.5

CC(C)CO [2-methyl-1-propanol]
Recirculating still
Conditions | vapor or sublimation pressure [kPa]
336.9 K | 15
351.2 K | 30
357.7 K | 40
362.9 K | 50
367.4 K | 60
371.3 K | 70
374.7 K | 80
377.8 K | 90
380.7 K | 100
383.3 K | 110
385.8 K | 120
388 K | 130
390.2 K | 140
392.2 K | 150
